According to publication PMC11904993, “Humanized Candida and NanoBiT Assays Expedite Discovery of Bdf1 Bromodomain Inhibitors With Antifungal Potential” (Advanced Science, 2025):
Values joined by “and” are separate entries in the source; they are usually repeats but may differ in a detail not shown here. Identical values can stand only once. Like-named read-outs stand apart in the source and are kept apart here.

What was measured:
human Brd4 BD1 = human Brd4 BD1 (Homo sapiens, UniProt O60885); assay: HTRF assay, inhibition of H4ac4 peptide binding; conditions: Brd4 BD1
human Brd4 BD2 = target: T1, human Brd4 BD2 (Homo sapiens, UniProt O60885); assay: HTRF assay, inhibition of H4ac4 peptide binding; conditions: Brd4 BD2
T1 construct: GST‐tagged BD2 (residues 349–460) from human Brd4 (UniProt ID O60885); purchased Reaction Biology Corp

[1] = test system: C. glabrata expressing humanized Bdf1 (Brd4 BDs); assay: Growth inhibition in liquid media, humanized C. glabrata strains; conditions: for EC50: Nakaseomyces glabratus
Experimental: Growth on Liquid Media with C. glabrata Lab Strains: Cells were grown at 30 °C in SC+M+C‐U medium (SC medium with 5 mM methionine, 0.25 mM cysteine, without uracil) to an OD600 of 0.5–0.8. […] Plates were incubated at 30 °C and OD600 was measured using a Multiskan FC Microplate Photometer (Thermo Fisher).

C. auris Bdf1 BD2 = C. auris Bdf1 BD2 (Candidozyma auris (Candida auris), UniProt A0AAW0VEM6); assay: HTRF assay, inhibition of H4ac4 peptide binding; conditions: CauBD2, read-out: HTRF signal, normalized (Figure 5A data)
Chain of C. auris Bdf1 BD2 (A0AAW0VEM6 entry or part of it): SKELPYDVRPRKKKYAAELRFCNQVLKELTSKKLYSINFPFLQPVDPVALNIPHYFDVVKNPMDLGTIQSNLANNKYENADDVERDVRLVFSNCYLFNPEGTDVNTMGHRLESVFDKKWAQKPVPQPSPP

With `CC(=O)N1c2ccc(-c3ccc(C(=O)O)cc3)cc2C(Nc2ccc(Cl)cc2)CC1C` (stereo not drawn) [I-BET726] the “HTRF signal, normalized (Figure 5A data)” value (human Brd4 BD1; 0.0537 nM) was 104.39 and 100.71 and 99.92 and 101.07, the “HTRF signal, normalized (Figure 5A data)” value (human Brd4 BD1; 0.13 nM) was 104.60 and 101.29 and 100.85 and 99.75 and the “HTRF signal, normalized (Figure 5A data)” value (human Brd4 BD1; 0.34 nM) was 101.49 and 102.55 and 101.26 and 101.01. For the same compound, the “HTRF signal, normalized (Figure 5A data)” value (human Brd4 BD1; 0.84 nM) was 100.78 and 99.59 and 99.33 and 97.74, the “HTRF signal, normalized (Figure 5A data)” value (human Brd4 BD1; 2.10 nM) was 99.49 and 98.84 and 98.60 and the “HTRF signal, normalized (Figure 5A data)” value (human Brd4 BD1; 5.24 nM) was 95.52 and 94.38 and 93.54 and 94.69. For the same compound, the “HTRF signal, normalized (Figure 5A data)” value (human Brd4 BD1; 13.11 nM) was 83.95 and 83.77 and 84.76 and 83.85, the “HTRF signal, normalized (Figure 5A data)” value (human Brd4 BD1; 32.77 nM) was 48.83 and 48.92 and 64.32 and 62.36 and the “HTRF signal, normalized (Figure 5A data)” value (human Brd4 BD1; 81.92 nM) was 17.12 and 16.89 and 27.28 and 27.02. For the same compound, the “HTRF signal, normalized (Figure 5A data)” value (human Brd4 BD1; 204.8 nM) was 4.51 and 4.84 and 6.56 and 8.13, the “HTRF signal, normalized (Figure 5A data)” value (human Brd4 BD1; 512 nM) was 0.14 and 0.27 and 0.17 and 0.18 and the “HTRF signal, normalized (Figure 5A data)” value (human Brd4 BD2; 0.0537 nM) was 102.97 and 106.08 and 108.84 and 105.09. The “HTRF signal, normalized (Figure 5A data)” value (human Brd4 BD2; 0.13 nM) was 103.72 and 102.37 and 103.68 and 103.57, the “HTRF signal, normalized (Figure 5A data)” value (human Brd4 BD2; 0.34 nM) was 94.46 and 91.58 and 95.80 and 94.95 and the “HTRF signal, normalized (Figure 5A data)” value (human Brd4 BD2; 0.84 nM) was 79.67 and 69.64 and 75.99 and 78.48. The “HTRF signal, normalized (Figure 5A data)” value (human Brd4 BD2; 2.10 nM) was 45.84 and 41.04 and 44.03 and 46.83, the “HTRF signal, normalized (Figure 5A data)” value (human Brd4 BD2; 5.24 nM) was 8.26 and 9.91 and 8.75 and 10.80 and the “HTRF signal, normalized (Figure 5A data)” value (human Brd4 BD2; 32.77 nM) was 3.03 and 2.91 and 2.46 and 2.11. The “HTRF signal, normalized (Figure 5A data)” value (human Brd4 BD2; 81.92 nM) was 2.74 and 1.64 and 1.67 and 2.48, the “HTRF signal, normalized (Figure 5A data)” value (human Brd4 BD2; 512 nM) was 2.01 and 2.50 and 2.14 and 2.65 and the “%Growth” value ([1]; Fig 3E, 50 µM, BDF1-hBD1-flag, Exp 1-3) was 2.33% and 1.84% and 1.76%. The “%Growth” value ([1]; Fig 3E, 50 µM, BDF1-hBD2-flag, Exp 1-3) was 3.8% and 4.25% and 4%, the “%Growth” value ([1]; Fig 3E, 50 µM, humanized BDF1-flag, Exp 1-3) was 0.38% and 2.64% and 0.389% and the “%Growth” value ([1]; Fig 3F, BDF1-hBD1-flag, 0.0137 µM) was 90.66% and 83.58% and 76.59%. For the same compound, the “%Growth” value ([1]; Fig 3F, BDF1-hBD1-flag, 0.0412 µM) was 77.41% and 78.96% and 63.08%, the “%Growth” value ([1]; Fig 3F, BDF1-hBD1-flag, 0.1235 µM) was 61.07% and 68.69% and 57.31% and the “%Growth” value ([1]; Fig 3F, BDF1-hBD1-flag, 0.3704 µM) was 41.42% and 40.29% and 42%. The “%Growth” value ([1]; Fig 3F, BDF1-hBD1-flag, 1.1111 µM) was 16.57% and 19.25% and 16.52%, the “%Growth” value ([1]; Fig 3F, BDF1-hBD1-flag, 3.3333 µM) was 5.27% and 7.44% and 4.82% and the “%Growth” value ([1]; Fig 3F, BDF1-hBD2-flag, 0.0137 µM) was 47.68% and 58.64% and 43.37%. For the same compound, the “%Growth” value ([1]; Fig 3F, BDF1-hBD2-flag, 0.0412 µM) was 32.5% and 27.54% and 41.03%, the “%Growth” value ([1]; Fig 3F, BDF1-hBD2-flag, 0.1235 µM) was 16.07% and 15.16% and 20.65% and the “%Growth” value ([1]; Fig 3F, BDF1-hBD2-flag, 0.3704 µM) was 9.64% and 8.03% and 12.17%. The “%Growth” value ([1]; Fig 3F, BDF1-hBD2-flag, 1.1111 µM) was 6.25% and 6.02% and 7.12%, the “%Growth” value ([1]; Fig 3F, BDF1-hBD2-flag, 3.3333 µM) was 4.46% and 5.24% and 6.4% and the “%Growth” value ([1]; Fig 3F, humanized BDF1-flag, 0.0137 µM) was 42.92% and 50.6% and 44.95%. For the same compound, the “%Growth” value ([1]; Fig 3F, humanized BDF1-flag, 0.0412 µM) was 25.63% and 22.37% and 34.68%, the “%Growth” value ([1]; Fig 3F, humanized BDF1-flag, 0.1235 µM) was 13.13% and 10.59% and 17.61% and the “%Growth” value ([1]; Fig 3F, humanized BDF1-flag, 0.3704 µM) was 5.63% and 5.85% and 8.26%. The “%Growth” value ([1]; Fig 3F, humanized BDF1-flag, 1.1111 µM) was 2.92% and 3.13% and 4.77%, the “%Growth” value ([1]; Fig 3F, humanized BDF1-flag, 3.3333 µM) was 1.04% and 1.36% and 2.75% and the EC50 ([1]; read-out: EC50 (μM) growth inhibition, Fig 3F, strain bdf1-hBD1-FLAG) was 0.25 ± 0.03 µM. It also gave an EC50 ([1]; read-out: EC50 (μM) growth inhibition, Fig 3F, strain bdf1-hBD2-FLAG) of 0.019 ± 0.002 µM, an EC50 ([1]; read-out: EC50 (μM), C. glabrata (hum), Fig 5C, both BDs humanized) of 0.043 ± 0.024 µM and an EC50 ([1]; read-out: EC50 growth inhibition, strain expressing humanized Bdf1) of 0.014 µM. It also gave a remaining activity at 0.0021 µM (C. auris Bdf1 BD2; 2.10 nM) of 97.4%, a remaining activity at 0.01311 µM (C. auris Bdf1 BD2; 13.11 nM) of 85.4% and a remaining activity at 0.03277 µM (C. auris Bdf1 BD2; 32.77 nM) of 75%. It also gave a remaining activity at 0.08192 µM (C. auris Bdf1 BD2; 81.92 nM) of 52.6%, a remaining activity at 0.2048 µM (C. auris Bdf1 BD2; 204.8 nM) of 31% and a remaining activity at 0.512 µM (C. auris Bdf1 BD2; 512 nM) of 12.9%.
